The values that follow come from paper PMC4695825 (Pharmaceutics, 2015).

On the set-up of series [1]: method as in PMID 20188808. The following applies: 400 μm needle length, cited from earlier work.
The conditions of series [2]: cited from earlier work; for logP / water solubility: no reference given.
For series [3] the following is noted: cited from earlier work.
Details of series [4]: method as in PMID 24333401. To be noted: nanostructured lipid carrier; cited from earlier work.
For series [5] the following is noted: mean ± SD, n = 6; for Microneedle cumulative amount after 12 h (Qs): skin treated with 500 μm microneedle roller.
Procedure: Frozen porcine ears were obtained from Animal Technologies, Tyler, TX, USA. Skin pieces were thawed at ambient temperatures and carefully shaved using an electric clipper (Wahl, Sterling, IL, USA). Full thickness skin was prepared by removing the subcutaneous fat from the underlying cartilage. The average thickness of the skin membrane was measured with a Digimatic Micrometer (Mitutoyo, Tokyo, Japan). Skin samples were maintained at −20 °C for storage. Prior to experiments, the skin samples were thawed at room temperature before use.
In vitro permeation experiments were conducted using a six-celled, static, vertical Franz diffusion cell system (PermeGear, Hellertown, PA, USA). Each cell contained a top donor compartment and a lower receptor compartment with a magnetic stirrer, sampling port, and water jacket maintained at 37 °C to simulate normal body temperature by Thermo Haake DC10-P5/U heating circulator bath (ThermoFisher Scientific, Waltham, MA, USA). The receptor compartment diffusion area was 1.77 cm^2 with a volume capacity of 12 mL filled with PBS. Skin samples obtained from different pigs were placed between the upper donor chamber and lower receiver chamber of the vertical Franz diffusion cells, which were sealed using high-vacuum grease (Dow Corning, Midland, MA, USA) and a metal clamp. Solid microneedle rollers were used to created microchannels in porcine skin. Full thickness microneedle-treated porcine skins were mounted on three-receptor compartments and untreated porcine skins were placed on the remaining three-receptor compartments to serve as controls, and diffusion experiments for the two drugs were replicated six times (n = 6). The microneedle roller was applied fifteen times to each skin sample to increase the number of microconduits for enhanced transdermal drug delivery. […] The sampling ports were also covered with parafilm to further reduce evaporation. […] Receptor chambers were replenished with an equal volume of fresh, pre-warmed PBS maintained at 37 °C. All samples were stored at 4 °C until analysis by LC–MS. The cumulative amount of each drug permeating the excised full thickness porcine skin was plotted as a function of time. The slope and intercept of the linear portion were derived by linear regression analysis. Steady state flux was calculated from the linear portion of the cumulative amount versus time curve.
Chromatographic separation was carried out on the reverse-phase Agilent Zorbax Eclipse Plus C18 (100 mm × 2.1 mm, 3.5 microns) analytical column, which was protected by a guard column with the same stationary phase (12.5 mm × 4.6 mm, 5 microns) (Agilent Technologies, Palo Alto, CA, USA). The column temperature was set at 40 °C, and the autosampler temperature was set at 4 °C. The mobile phase consisted of 0.1% formic acid in water (solvent A), and 0.1% formic acid in methanol (solvent B). […] A post-run time of 2 min for mobile phase equilibration was used after each sample run. Calibration curve standards were freshly prepared in PBS buffer solution. The MS data were collected in positive electro spray ionization tandem mass spectrometry (ESI MS/MS) mode. Nebulizer temperature was 350 °C, nebulizer pressure was 50 psi, and the drying gas flow rate was 10.0 L/min. Compounds were quantified in positive ESI MS/MS mode by quantifying the specific product ion.
Flux values were calculated using the steady-state portion of the cumulative amount versus time curves. Six replicates were used for the study.

Structures are written as SMILES. Where a name gives a salt, the structure may show the parent alone. Read-outs that look alike come from different tables or passages of the source. Bounds are passed on as bounds.

Turning to `Nc1nc2c(ncn2COCCO)c(=O)[nH]1` [acyclovir], the “Flux enhancement after microneedle array pretreatment” value is on record as “significant enhancement” in series [1] (2000 needles/cm^2) and “lower enhancement” in series [1] (5625 needle/cm^2).
Turning to `NC12CC3CC(CC(C3)C1)C2` [amantadine hydrochloride, Amantadine hydrochloride], in series [2], the partition coefficient was 2.44; the logP (in general, a log measure of how a compound divides between an organic and an aqueous phase) is on record as 2.4; the water solubility was 50 mg/mL. In addition, the pharmacokinetic half-life in series [3] is 10 h.
With `Cc1cc2c(s1)Nc1ccccc1N=C2N1CCN(C)CC1` [olanzapine], in series [4], the “Change in transdermal permeation rate after microneedle device pretreatment” value was “slight but not statistically significant increase”.
The compound `CCCN[C@H]1CCc2nc(N)sc2C1` [pramipexole dihydrochloride] had a Microneedle-facilitated transdermal flux in series [5] (full thickness porcine ear skin treated with 500 μm stainless steel microneedle roller, 37 °C, donor amantadine ~50 mg/mL or pramipexole ~1 mg/mL, steady state) of 134.04 ± 0.98 μg/cm^2/h. The “Microneedle cumulative amount after 12 h (Qs)” value is 1583.43 ± 72.99 μg/cm^2 in series [5] (12 h, listed as Pramipexole) and 1583.43 μg/cm^2 in series [5] (12 h, listed as pramipexole). For the same compound, in series [5] (untreated full thickness porcine ear skin, 37 °C, donor amantadine ~50 mg/mL or pramipexole ~1 mg/mL, steady state), the “Passive (control) transdermal flux” value is reported as 134.83 ± 13.66 μg/cm^2/h. Besides, in series [5] (untreated full thickness porcine ear skin, 12 h), the “Passive (control) cumulative amount after 12 h (Qs)” value was determined as 1607.86 ± 35.77 μg/cm^2. Further, the logP in series [2] is 1.2. Besides, the water solubility in series [2] is recorded as more than 20 mg/mL. Moreover, in series [2] (pH 7.4), the “octanolphosphate buffer partition coefficient” value was 0.135. The pharmacokinetic half-life in series [3] is 6 to 8 h.
